Key:
Type in all cases: cell-based
5-HT7R [1] = molecular target: T1, 5-HT7R (Homo sapiens (Human), UniProt P34969); experiment: Tango assay (β-arrestin signaling system); details: HTLA cells transfected with 5-HT7R-TCS-tTA construct
Procedure: Tango assay was conducted using HTLA cells in order to investigate the activity of the β-arrestin signaling system. Prior to transfection, the culture medium was replaced from DMEM containing 10% FBS, 100 U/mL penicillin, 100 μg/mL streptomycin, 2 μg/mL puromycin and 100 μg/mL hygromycin B to DMEM containing 10% dialyzed FBS, 100 U/mL penicillin and 100 μg/mL streptomycin. 4 hours later, transfection was conducted using 20 μg of a 5-HT7R-TCS-tTA construct (5-HT7R Tango DNA). The transfected cells were prepared on a white, flat, clear-bottom, 384-well plate (Greiner) (15,000 cells/well, 20 μL/well) using DMEM containing 10% dialyzed FBS, 100 U/mL penicillin and 100 μg/mL streptomycin. 6 hours later, after removing the culture medium, the cells were treated with 10 μL of the compound solution. After culturing for 22 hours and removing the culture medium, the cells were treated with 20 μL of a BrightGlo reagent (Promega) diluted in a 1×HBSS, […], pH 7.4 buffer. After measuring luminescence using a Tecan microplate reader (Spark), IC50 value was obtained using the Prism 8.0 program (GraphPad Software).

5-HT7R [2] = molecular target: T1, 5-HT7R; experiment: cAMP assay (luminescence-based, GloSensor); details: HEK293 cells transfected with human 5-HT7R and GloSensor-22F
Procedure: For luminescence-based cAMP assay, HEK293 cells were cultured on a 150-mm dish. Prior to transfection, the culture medium was replaced from DMEM containing 10% FBS, 100 U/mL penicillin and 100 μg/mL streptomycin to DMEM containing 10% dialyzed FBS, 100 U/mL penicillin and 100 μg/mL streptomycin. 4 hours later, transfection was conducted using 10 μg of a human 5-HT7R plasmid and 10 μg of a GloSensor-22F plasmid (Promega). The transfected cells were prepared on a white, flat, clear-bottom, 384-well plate (Greiner) (15,000 cells/well, 20 μL/well). 6 hours later, after removing the culture medium, the cells were treated with 20 μL of a 3% Glosensor cAMP reagent containing luciferin in a 1×HBSS, […], pH 7.4 buffer. In addition, the compound of each of the examples was prepared at different concentrations in an assay buffer containing 0.1% bovine serum albumin. 30 minutes later, 10 μL of the compound solution was treated to the cells. After measuring luminescence using a Tecan microplate reader (Spark), IC50 value was obtained using the Prism 8.0 program (GraphPad Software).

5-HT7R [3] = molecular target: T1, 5-HT7R; experiment: Schild plot for Tango assay; details: compounds at 5 μM, 10 μM and 30 μM with serotonin, read-out: pA2 (converted)
Procedure: Schild plots were constructed for the Tango assay in order to investigate the effect of the compounds on the activity of the β-arrestin signaling pathway. After culturing cells and replacing the culture medium as described in b) of Test Example 1, the cells were transfected and prepared on a plate. 6 hours later, the cells were treated with 10 μL of the solution of serotonin or the compounds at final concentrations of 5 μM, 10 μM and 30 μM. […] In addition, the pA2 value was obtained using the Excel software. The Schild plots and pA2 values of compound 23 and compound 30 according to the present disclosure are summarized in FIGS. 1A-1B, FIG. 2 and Table 8.

T1 sequence (P34969 whole entry): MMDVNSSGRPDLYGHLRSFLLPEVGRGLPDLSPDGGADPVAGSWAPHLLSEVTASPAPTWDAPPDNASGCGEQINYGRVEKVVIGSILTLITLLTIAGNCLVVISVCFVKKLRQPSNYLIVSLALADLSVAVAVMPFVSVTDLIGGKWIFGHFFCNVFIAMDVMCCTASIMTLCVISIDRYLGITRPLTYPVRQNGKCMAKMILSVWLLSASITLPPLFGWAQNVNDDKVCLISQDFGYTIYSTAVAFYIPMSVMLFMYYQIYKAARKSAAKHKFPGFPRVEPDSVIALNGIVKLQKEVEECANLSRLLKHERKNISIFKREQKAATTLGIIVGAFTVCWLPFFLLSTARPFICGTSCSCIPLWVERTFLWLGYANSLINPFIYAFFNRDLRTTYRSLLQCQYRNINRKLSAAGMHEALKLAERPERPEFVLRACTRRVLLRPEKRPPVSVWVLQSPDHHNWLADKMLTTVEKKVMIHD

SMILES | inhibition at 10 µM (5-HT7R [1]) [%] | IC50 (5-HT7R [1]) [µM] | inhibition at 10 µM (5-HT7R [2]) [%] | IC50 (5-HT7R [2]) [µM] | Kb (5-HT7R [3]) [µM]
COc1ccccc1-c1cccc(C2=NCCN2)c1 [Compound 30, 2-(2′-methoxy-[1,1′-biphenyl]-3-yl)-4,5-dihydro-1H-imidazole] | 40.6 | 39.8 | 94.1 | 2.58 | 1.26
c1ccc(-c2cccc(C3=NCCN3)c2)cc1 [Compound 23, 2-([1,1′-biphenyl]-3-yl)-4,5-dihydro-1H-imidazole] | 44.2 | 47.9 | 83.3 | 5.1 | 5.75
Clc1ccc(-c2cccc(CN3CCCC3)c2)cc1 [Compound 4, 1-((4′-chloro-[1,1′-biphenyl]-3-yl)methyl)pyrrolidine] | 14.1 | – | 38.1 | – | –
COc1ccc(-c2cccc(CN3CCCC3)c2)cc1 [Compound 10, 1-((4′-methoxy-[1,1′-biphenyl]-3-yl)methyl)pyrrolidine] | 23.1 | – | 37.9 | – | –
Cc1ccc(-c2cc(C3=NCCN3)ccc2Cl)cc1 [Compound 40, 2-(6-chloro-4′-methyl-[1,1′-biphenyl]-3-yl)-4,5-dihydro-1H-imidazole] | 31.3 | – | 48.9 | – | –
COc1cccc(-c2cccc(C3=NCCN3)c2)c1 [Compound 31, 2-(3′-methoxy-[1,1′-biphenyl]-3-yl)-4,5-dihydro-1H-imidazole] | 27.8 | – | 72.5 | 5.77 | –
Clc1ccccc1-c1cc(CN2CCCC2)ccc1Cl [Compound 13, 1-((2′,6-dichloro-[1,1′-biphenyl]-3-yl)methyl)pyrrolidine] | 50.5 | – | 90.7 | 3.2 | –
